# In ChEMBL document CHEMBL4673218, “Kojyl cinnamate esters are peroxisome proliferator-activated receptor α/γ dual agonists” (Bioorg Med Chem, 2018):
# Active and inactive are the calls of the source. The calls are words filed in the database; no cut-off is given here.
# Tests used:
# [1] = molecular target: T1, PPAR alpha/gamma (Homo sapiens) (UniProt P37231+Q07869); experiment: Agonist activity at PPARalpha/PPARgamma in human AT-MSC cells assessed as upregulation of HMGCR mRNA at 10 uM incubated for 3 days by qRT-PCR analysis; type: cell-based; details: Adipose tissue derived mesenchymal stem cell, filed as agonist, time 3.0 day
# [2] = molecular target: T1, PPAR alpha/gamma (Homo sapiens); experiment: Agonist activity at PPARalpha/PPARgamma in human NHEK cells assessed as upregulation of FADS2 mRNA at 10 uM incubated for 3 days by qRT-PCR analysis; type: cell-based; details: filed as agonist, time 3.0 day
# [3] = molecular target: T2, Peroxisome proliferator-activated receptor gamma (Homo sapiens) (UniProt P37231); experiment: Binding affinity to human recombinant PPARgamma at 30 uM by competitive binding based TR-FRET assay relative to control; details: filed as agonist
# T2 sequence (whole entry): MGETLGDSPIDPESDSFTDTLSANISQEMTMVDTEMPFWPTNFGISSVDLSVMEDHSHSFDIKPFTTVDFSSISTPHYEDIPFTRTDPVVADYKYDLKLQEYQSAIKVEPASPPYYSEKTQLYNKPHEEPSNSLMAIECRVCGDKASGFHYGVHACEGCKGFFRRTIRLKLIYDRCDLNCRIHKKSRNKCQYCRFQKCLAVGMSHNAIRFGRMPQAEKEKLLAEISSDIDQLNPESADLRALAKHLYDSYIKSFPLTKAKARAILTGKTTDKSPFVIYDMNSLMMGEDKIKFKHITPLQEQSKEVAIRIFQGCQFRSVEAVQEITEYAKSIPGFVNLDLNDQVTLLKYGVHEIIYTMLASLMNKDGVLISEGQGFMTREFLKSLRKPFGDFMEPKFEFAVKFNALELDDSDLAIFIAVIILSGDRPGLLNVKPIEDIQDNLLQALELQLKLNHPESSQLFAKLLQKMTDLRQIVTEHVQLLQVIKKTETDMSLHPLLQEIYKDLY
# [4] = molecular target: T1, PPAR alpha/gamma (Homo sapiens); experiment: Agonist activity at PPARalpha/PPARgamma in human AT-MSC cells assessed as upregulation of FADS2 mRNA at 10 uM incubated for 3 days by qRT-PCR analysis; type: cell-based; details: Adipose tissue derived mesenchymal stem cell, filed as agonist, time 3.0 day
# NHEK [5] = experiment: Inhibition of UVB-induced MMP1 mRNA in human NHEK cells at 10 uM incubated for 24 hrs by qRT-PCR analysis; type: functional, cell-based
# [6] = molecular target: T1, PPAR alpha/gamma (Homo sapiens); experiment: Agonist activity at PPARalpha/PPARgamma in human AT-MSC cells assessed as upregulation of HMGCS2 mRNA at 10 uM incubated for 3 days by qRT-PCR analysis; type: cell-based; details: Adipose tissue derived mesenchymal stem cell, filed as agonist, time 3.0 day
# [7] = molecular target: T1, PPAR alpha/gamma (Homo sapiens); experiment: Agonist activity at PPARalpha/PPARgamma in human NHEK cells assessed as upregulation of FADS1 mRNA at 10 uM incubated for 3 days by qRT-PCR analysis; type: cell-based; details: filed as agonist, time 3.0 day
# [8] = molecular target: T2, Peroxisome proliferator-activated receptor gamma (Homo sapiens); experiment: (§1) Binding affinity to human recombinant PPARgamma by Cheng-Prusoff equation based competitive binding TR-FRET assay; details: filed as agonist
# [9] = molecular target: T3, Peroxisome proliferator-activated receptor gamma (Homo sapiens, UniProt P37231); experiment: as §1
# T3 sequence (P37231 whole entry): T2 sequence (whole entry)
# [10] = molecular target: T1, PPAR alpha/gamma (Homo sapiens); experiment: Agonist activity at PPARalpha/PPARgamma in human AT-MSC cells assessed as upregulation of FASN mRNA at 10 uM incubated for 3 days by qRT-PCR analysis; type: cell-based; details: Adipose tissue derived mesenchymal stem cell, filed as agonist, time 3.0 day
# NHEK [11] = experiment: Inhibition of UVB-induced MMP1 level in human NHEK cells at 10 uM incubated for 24 hrs by ELISA; type: functional, cell-based
# [12] = molecular target: T1, PPAR alpha/gamma (Homo sapiens); experiment: Agonist activity at PPARalpha/PPARgamma in human NHEK cells assessed as upregulation of HMGCR mRNA at 10 uM incubated for 3 days by qRT-PCR analysis; type: cell-based; details: time 3.0 day
# [13] = molecular target: T4, Peroxisome proliferator-activated receptor alpha (Homo sapiens) (UniProt Q07869); experiment: Binding affinity to human recombinant PPARalpha at 30 uM by competitive binding based TR-FRET assay relative to control; details: filed as agonist
# T4 sequence (whole entry): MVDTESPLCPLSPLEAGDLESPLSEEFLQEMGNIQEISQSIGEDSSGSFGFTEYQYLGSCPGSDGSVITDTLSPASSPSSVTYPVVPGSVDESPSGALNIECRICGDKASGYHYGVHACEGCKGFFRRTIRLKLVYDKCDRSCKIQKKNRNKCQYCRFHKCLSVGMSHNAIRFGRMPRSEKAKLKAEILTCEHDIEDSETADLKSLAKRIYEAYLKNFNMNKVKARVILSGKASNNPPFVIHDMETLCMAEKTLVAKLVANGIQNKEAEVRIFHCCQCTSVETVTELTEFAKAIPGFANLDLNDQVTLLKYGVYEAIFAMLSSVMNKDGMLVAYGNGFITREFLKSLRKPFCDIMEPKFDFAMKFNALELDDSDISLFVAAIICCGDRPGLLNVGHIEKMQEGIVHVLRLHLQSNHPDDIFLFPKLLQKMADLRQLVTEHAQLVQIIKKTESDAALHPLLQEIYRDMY
# [14] = molecular target: T5, Glucocorticoid receptor (Homo sapiens) (UniProt P04150); experiment: Binding affinity to human glucocorticoid receptor at 30 uM by competitive binding based TR-FRET assay
# T5 sequence (whole entry): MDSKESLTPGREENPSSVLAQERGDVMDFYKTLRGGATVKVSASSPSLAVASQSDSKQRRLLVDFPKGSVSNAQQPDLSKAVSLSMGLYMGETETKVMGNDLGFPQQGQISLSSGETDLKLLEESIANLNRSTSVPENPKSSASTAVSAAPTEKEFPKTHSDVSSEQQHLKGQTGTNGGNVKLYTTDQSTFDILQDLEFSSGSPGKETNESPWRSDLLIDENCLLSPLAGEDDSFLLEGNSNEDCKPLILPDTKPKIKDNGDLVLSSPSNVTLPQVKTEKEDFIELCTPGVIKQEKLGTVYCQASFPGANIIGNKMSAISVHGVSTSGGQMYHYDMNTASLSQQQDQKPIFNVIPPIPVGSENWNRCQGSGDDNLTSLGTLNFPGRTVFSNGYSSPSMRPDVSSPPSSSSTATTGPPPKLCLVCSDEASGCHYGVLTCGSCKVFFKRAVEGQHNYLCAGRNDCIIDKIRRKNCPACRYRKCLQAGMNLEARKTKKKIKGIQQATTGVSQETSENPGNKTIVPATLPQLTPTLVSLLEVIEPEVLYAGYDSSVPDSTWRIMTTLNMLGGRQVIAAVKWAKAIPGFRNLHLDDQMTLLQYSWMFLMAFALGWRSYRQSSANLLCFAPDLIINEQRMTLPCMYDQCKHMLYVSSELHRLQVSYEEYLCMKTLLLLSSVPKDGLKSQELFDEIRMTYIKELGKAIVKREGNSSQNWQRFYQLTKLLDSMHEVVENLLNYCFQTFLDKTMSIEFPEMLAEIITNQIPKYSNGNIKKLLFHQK
# [15] = system: Adipose tissue derived mesenchymal stem cell; experiment: Induction of adipogenesis in human AT-MSC cells assessed as increase in intracellular lipid accumulation at 30 uM in IDX medium incubated for 5 days by Oil Red O staining based inverted phase microscopy relative to IDX control; type: functional; details: time 5.0 day
# [16] = molecular target: T1, PPAR alpha/gamma (Homo sapiens); experiment: Agonist activity at PPARalpha/PPARgamma in human NHEK cells assessed as upregulation of HMGCS2 mRNA at 10 uM incubated for 3 days by qRT-PCR analysis; type: cell-based; details: filed as agonist, time 3.0 day
structure (smiles),measurement,setting,value
COc1ccc(OC)c(/C=C/C(=O)OCc2cc(=O)c(O)co2)c1,Activity,[1],Active
same,Activity,[2],Active
same,Activity,[3],77%
same,Activity,[4],Active
same,inhibition,NHEK [5],Active
same,Activity,[6],Active
same,Activity,[7],Active
same,Activity,[8],Dose-dependent effect
same,Ki,[9],7 µM
same,Activity,[10],Active
same,inhibition,NHEK [11],Active
same,Activity,[12],inactive
same,Activity,[13],59%
same,Activity,[14],inactive
same,Activity,[15],Active
same,Activity,[16],Active
